The values that follow come from patent US6162832A, “2-Phenoxyaniline derivatives” (Taisho Pharmaceutical Co., Inc., priority 1997, dated 2000).

SMILES strings stand for the structures. Counter-ions that a name gives are not always drawn.

For the assay, the target named is T1, Na^+ /Ca^2+ Exchange System (Canis lupus familiaris, UniProt P23685).
T1 construct: Sarcolemmal vesicles prepared from the removed dog ventricular muscles; from tissue; host or cells: dog ventricular muscle, sarcolemmal vesicles
The assay is described as follows: Inhibitory Action on a Na^+ /Ca^2+ Exchange System using Cardiac Sarcolemmal Vesicles. Particulars: 10 s; 1 μM test drug; dog ventricular sarcolemmal vesicles; 45Ca uptake, 10 seconds; remaining activity vs vehicle-treated group; read-out: Na^+ /Ca^2+ exchange activity (% of control). The format is biochemical. As to the method:
Inhibitory Action on a Na^+ /Ca^2+ Exchange System using Cardiac Sarcolemmal Vesicles Sarcolemmal vesicles prepared from the removed dog ventricular muscles according to the method described in the literature (L. R. Jones, Methods, Enzymol., 1988, 157, pp. 85) were used. A Na^+ /Ca^2+ exchange activity using the sarcolemmal vesicles was measured according to the method described in the literature (K. D. Philipson, et al., J. Biol. Chem., 1980, 255, pp. 6880). First, the sarcolemmal vesicles were suspended in a sodium-containing solution [160 mM sodium chloride, 20 mM Tris-hydrochloric acid (pH 7.4)] to make up to a protein concentration of 1.5 mg/ml, and allowed to stand for an hour to load Na^+ in the sarcolemmal vesicles. To 2.5 μl of the sarcolemmal vesicles was added 125 μl of a [^45 Ca]-calcium chloride solution [20 μM [^45 Ca]-calcium chloride, 160 mM potassium chloride and 20 mM Mops-Tris (pH 7.4)], and after 10 seconds, 900 μl of an ice-cooled lanthanum chloride solution [10 mM lanthanum chloride, 160 mM potassium chloride and 20 mM Mops-Tris (pH 7.4)] was added. The sarcolemmal vesicles were recovered on a nitrocellulose filter by suction filtration and washed three times with 900 μl of a lanthanum chloride solution. The […] of Ca^2+ uptake in the sarcolemmal vesicles was determined by measuring a ^45 Ca radioactivity by a scintillator. In addition, a Na^+ /Ca^2+ exchange activity-independent Ca^2+ uptake in the sarcolemmal vesicles was determined by carrying out the same procedure using a potassium-containing solution [160 mM potassium chloride, 20 mM Tris-hydrochloric acid (pH 7.4)] instead of the sodium-containing solution. The test compound was used as a dimethyl sulfoxide solution thereof, and its inhibitory effect was evaluated in comparison with the vehicle-treatedgroup.
Regarding `Nc1ccccc1Oc1ccc(OCc2cccc(F)c2F)cc1` [Compound 3, 2-[4-(2,3-Difluorobenzyloxy)phenoxy]aniline hydrochloride], the remaining activity at 1 µM turned out to be 38%.
For the molecule `Nc1ccccc1Oc1ccc(OCc2cc(F)ccc2F)cc1` [Compound 4, 2-[4-(2,5-Difluorobenzyloxy)phenoxy]aniline hydrochloride], the remaining activity at 1 µM was determined as 27%.
In the case of `Nc1ccccc1Oc1ccc(OCc2c(F)cccc2F)cc1` [Compound 5, 2-[4-(2,6-Difluorobenzyloxy)phenoxy]aniline hydrochloride], the remaining activity at 1 µM was 43%.
In the case of `CCOc1ccc(Oc2ccc(OCc3cc(F)ccc3F)cc2)c(N)c1` [Compound 6, 2-[4-(2.5-Difluorobenzyloxy)phenoxy]-5-ethoxyaniline hydrochloride], the remaining activity at 1 µM came to 39%.
Consider `CCOc1ccc(Oc2ccc(OCc3c(F)cccc3F)cc2)c(N)c1` [Compound 7, 2-[4-(2.6-Difluorobenzyloxy)phenoxy]-5-ethoxyaniline hydrochloride], for which the remaining activity at 1 µM was determined as 33%.
Consider `Nc1ccccc1Oc1ccc(OCc2ccc(F)cc2F)cc1` [Compound 8, 2-[4-(2,4-Difluorobenzyloxy)phenoxy]aniline hydrochloride], for which the remaining activity at 1 µM came to 47%.
Regarding `CCOc1ccc(Oc2ccc(OCc3cccc(F)c3F)cc2)c(N)c1` [Compound 10, 2-[4-(2,3-Difluorobenzyloxy)phenoxy]-5-ethoxyaniline hydrochloride], the remaining activity at 1 µM amounted to 45%.
